Measured values as given in patent publication US20210274784A1, “HERBICIDAL MIXTURES COMPRISING ISOXAFLUTOLE, SAFLUFENACIL AND AN IMIDAZOLINONE HERBICIDE; AND THEIR USE IN SOYBEAN AND COTTON CULTURES” (BASF SE, priority 2018, published 2021).

Tested on: ALOMY (Alopecurus myosuroides, Blackgrass)
Experiment: post-emergence greenhouse experiment, herbicidal action (scale 0 to 100)
Assay type: in vivo
Conditions: test period 20 days
From the text: The culture containers used were plastic flowerpots containing loamy sand with approximately 3.0% of humus as the substrate. The seeds of the test plants were sown separately for each species. For pre-emergence treatment, the active ingredients, which had been suspended or emulsified in water, were applied directly after sowing by means of finely distributing nozzles. The containers were irrigated gently to promote germination and growth and subsequently covered with transparent plastic hoods until the plants had rooted. This cover caused uniform germination of the test plants, unless this had been impaired by the active ingredients. For post-emergence treatment, the test plants were first grown to a height of 3 to 32 cm, depending on the plant habit, and only then treated with the active ingredients which had been suspended or emulsified in water. For this purpose, the test plants were either sown directly and grown in the same containers, or they were first grown separately as seedlings and transplanted into the test containers a few days prior to treatment. Depending on the species, the plants were kept at 10-25° C. or 20-35° C., respectively. The test period extended over 20 days. During this time, the plants were tended, and their response to the individual treatments was evaluated. The evaluation was carried out by using a scale from 0 to 100. […]

Structure (SMILES): CS(=O)(=O)c1cc(C(F)(F)F)ccc1C(=O)c1cnoc1C1CC1 [Isoxaflutole, isoxaflutole]
- Herbicidal action against ALOMY, Found (growth stage 11, Isoxaflutole 3.125 g/ha alone): 0
- Herbicidal action against ALOMY, Found (growth stage 11, Isoxaflutole 6.25 g/ha alone): 0
